Measurements as given in patent publication US20130046283A1, “METHODS AND INTRAVASCULAR TREATMENT DEVICES FOR TREATMENT OF ATHEROSCLEROSIS” (Medtronic Vascular, Inc., priority 2011, published 2013).
Entries after “also recorded” stand apart in the source; their conditions may differ.

Assays:
Assay type in all cases: cell-based
[1] = system: BTG2; assay: qRT-PCR BTG2 gene expression in SFA smooth muscle cells, drug then inflammatory cocktail; conditions: quiescent SFA smooth muscle cells, drug then FBS, TGF Beta and IL-1 beta cocktail; calibrated against unstimulated baseline; FIG. 14A
Description: (§1) FIG. 14 depicts differential effect of paclitaxel versus the Limus family of drugs on expression of cell cycle, proliferation and ECM target genes in SFA smooth muscle cells. Quiescent SFA smooth muscle cells were treated with of Paclitaxel, Zotarolimus or Sirolimus then stimulated with inflammatory cocktail consisting of FBS, TGF Beta and 11—1 beta. Relative gene expression levels were determined by qRT-PCR for each drug treated arm as calibrated against the unstimulated baseline control for (A) BTG2, (B) KLF4, (C) PEDF, (D) Endothelin-1, (E) Thrombospondin-1, and (F) Thrombospondin-3.
(§2) Since the limus drugs have been known to affect the signaling via their effect on cell cycle inhibitors (CDKN1A and CDKN1 B), we next studied their effects on the pertinent proliferative disease targets identified in this study. Specifically, we looked at BTG2, KLF4 and PEDF (FIGS. 14A, 14B, and 14C, respectively).

[2] = system: Endothelin-1; assay: qRT-PCR Endothelin-1 gene expression in SFA smooth muscle cells, drug then inflammatory cocktail; conditions: quiescent SFA smooth muscle cells, FIG. 14D
Description: as §1
(§3) In a similar manner, the expression of Thrombospondin-1 and Thrombospondin-3 is inhibited by paciltaxel but not by sirolimus and zotarolimus. Taken together the data with regards to the differential effects of commercially employed, anti-proliferative drugs, such as paciltaxel and drugs of the limus family, on the expression of SFA disease target genes can highlight/point to wards the most beneficial therapeutic mode of application and treatment.

[3] = system: KLF4; assay: qRT-PCR KLF4 gene expression in SFA smooth muscle cells, drug then inflammatory cocktail; conditions: quiescent SFA smooth muscle cells, drug then FBS, TGF Beta and IL-1 beta cocktail; calibrated against unstimulated baseline; FIG. 14B
Description: as §1, §2

[4] = system: Thrombospondin-3; assay: qRT-PCR Thrombospondin-3 gene expression in SFA smooth muscle cells, drug then inflammatory cocktail; conditions: quiescent SFA smooth muscle cells, FIG. 14F
Description: as §1, §3

[5] = system: SFA smooth muscle cells; assay: Actin and Ki67 staining of SMCs exposed to drug (cellular morphology); conditions: SMCs fixed and stained with Actin and Ki67; FIG. 13B
Description: (§4) FIG. 13 depicts effects of paclitaxel on cellular morphology, gene and protein expression. (A and B) SFA smooth muscle cells from normal donor tissue were treated with Paclitaxel, Everolimus or Sirolimus. Gene expression levels were determined by qRT-PCR for each drug arm calibrated against unstimulated control for (A) CDKN1A and (C) CTGF. (B) SMCs were exposed to Sirolimus or Paclitaxel, fixed and stained with Actin (red) and Ki67 (green). (D) SFA derived smooth muscle cells were treated with Paclitaxel, Everolimus or Sirolimus then stimulated with Colchicinne (CTGF a) or Angiotensin II (CTGF b). Protein levels were detected by western blot using antibodies against CTGF and beta actin. One representative blot of three replicates shown.
(§5) Obtaining samples from SFA arteries allowed us to generate SFA derived-smooth muscle cells and to examine the expression of genes of interest as ide12tified in the disease atherectomy samples. In particularly we investigated the transcriptional response to anti-proliferative drugs, e.g. paclitaxel and drugs from the limus family such as sirolimus, everolimus or zotarolimus. These drugs are currently employed in combination devices indicated for the treatment of coronary and peripheral disease, including drug eluting stents and drug eluting balloons. […]

[6] = system: PEDF; assay: qRT-PCR PEDF gene expression in SFA smooth muscle cells, drug then inflammatory cocktail; conditions: quiescent SFA smooth muscle cells, drug then FBS, TGF Beta and IL-1 beta cocktail; calibrated against unstimulated baseline; FIG. 14C
Description: as §1, §2

[7] = system: CTGF; assay: qRT-PCR CTGF gene expression in drug-treated SFA smooth muscle cells; conditions: qRT-PCR calibrated against unstimulated control, FIG. 13C
Description: as §4, §5

[8] = system: CDKN1A; assay: qRT-PCR CDKN1A gene expression in drug-treated SFA smooth muscle cells; conditions: SFA smooth muscle cells from normal donor tissue; qRT-PCR calibrated against unstimulated control; FIG. 13A
Description: as §4, §5

[9] = system: CTGF; assay: Western blot of CTGF protein in drug-treated SFA derived smooth muscle cells; conditions: drug then Colchicinne or Angiotensin II stimulation, FIG. 13D
Description: as §4, §5

[10] = system: Thrombospondin-1; assay: qRT-PCR Thrombospondin-1 gene expression in SFA smooth muscle cells, drug then inflammatory cocktail; conditions: quiescent SFA smooth muscle cells, FIG. 14E
Description: as §1, §3

| SMILES | expression of BTG2 [1] | expression of Endothelin-1 [2] | expression of KLF4 [3] | expression of Thrombospondin-3 [4] | expression of Thrombospondin-3 ([4]; listed as paciltaxel) | effect on cellular cytoskeleton / morphology [5] | expression of PEDF [6] | expression of CTGF (gene) [7] | CDKN1A expression [8] | CTGF protein levels [9] | expression of Endothelin-1 ([2]; listed as paciltaxel) | expression of Thrombospondin-1 [10] | expression of Thrombospondin-1 ([10]; listed as paciltaxel) |
| --- | --- | --- | --- | --- | --- | --- | --- | --- | --- | --- | --- | --- | --- |
| CO[C@H]1C[C@@H]2CC[C@@H](C)[C@@](O)(O2)C(=O)C(=O)N2CCCC[C@H]2C(=O)O[C@H]([C@H](C)C[C@@H]2CC[C@H](n3cnnn3)[C@H](OC)C2)CC(=O)[C@H](C)/C=C(\C)[C@@H](O)[C@@H](OC)C(=O)[C@H](C)C[C@H](C)/C=C/C=C/C=C/1C [zotarolimus] | induced the expression | substantially upregulated | induced the expression |  |  |  |  |  |  |  |  |  |  |
| CC(=O)O[C@H]1C(=O)[C@@]2(C)[C@H]([C@H](OC(=O)c3ccccc3)[C@]3(O)C[C@H](OC(=O)[C@H](O)[C@@H](NC(=O)c4ccccc4)c4ccccc4)C(C)=C1C3(C)C)[C@]1(OC(C)=O)CO[C@@H]1C[C@@H]2O [Paclitaxel] | up regulated | substantially down regulated | up regulated | substantially down regulated | inhibited | disrupting cellular cytoskeleton | up regulated | substantial down regulation; also recorded: substantially down regulated | does not affect | reduced | slightly inhibited | substantially down regulated | inhibited |
| CO[C@H]1C[C@@H]2CC[C@@H](C)[C@@](O)(O2)C(=O)C(=O)N2CCCC[C@H]2C(=O)O[C@H]([C@H](C)C[C@@H]2CC[C@@H](OCCO)[C@H](OC)C2)CC(=O)[C@H](C)/C=C(\C)[C@@H](O)[C@@H](OC)C(=O)[C@H](C)C[C@H](C)/C=C/C=C/C=C/1C [everolimus] |  |  |  |  |  |  |  |  | up regulating |  |  |  |  |
